{
  "source": "paper PMC9646673",
  "about": "“A Novel, Orally Bioavailable, Small-Molecule Inhibitor of PCSK9 With Significant Cholesterol-Lowering Properties In Vivo” (Journal of Lipid Research, 2022)",
  "test_system": "hepatic LDLR protein",
  "assay": "First efficacy study: hepatic LDLR protein (Western blotting)",
  "format": "in vivo, mouse",
  "details": "day 28",
  "from_the_text": "Animal experiments were approved by the governmental central committee on animal experiments (AVD5010020172064) and TNO’s animal welfare body (TNO-471 and TNO-482). Female APOE∗3-Leiden.CETP transgenic mice (11–16 weeks of age) were bred at the animal facility of TNO-InnoSer (Leiden, The Netherlands). Female animals were used in this study as they are more responsive to dietary cholesterol and fat than males and therefore typically develop atherosclerosis more rapidly than male APOE∗3-Leiden and APOE∗3-Leiden.CETP mice on cholesterol-containing diets ([33], [34]). […] Body weight, food intake, and clinical signs of behavior were monitored throughout the studies. […]\nTreatment times were around 8:00 am and 4:00 pm each day. Throughout the in-life phase of the study, body weight and food intake (per cage) were measured at regular predetermined intervals while blood samples were collected every 7 days. […] Throughout the study, plasma cholesterol, triglycerides, HDL-C, lipoprotein profiles, PCSK9 expression levels, aspartate transaminase levels (AST), and alanine transaminase levels (ALT) were measured as described below.\nThe transcript levels of select genes in the liver tissue of mice treated with either vehicle or NYX-PCSK9i were analyzed. […] Differential transcriptional activity was calculated using the 2^–ΔΔCt method.",
  "data": [
    {"smiles": "Cc1cn(-c2cc(CN3CCC[C@H](N)C3)cc(NC(=O)c3cc(-c4ccccc4)ccn3)c2)cn1", "note": "[NYX-PCSK9i]", "values": [
      {"measurement": "increase in hepatic LDLR protein levels", "setting": "30 mg/kg BID PO", "value": 46, "unit": "%"},
      {"measurement": "increase in hepatic LDLR protein levels", "setting": "50 mg/kg BID PO", "value": 51, "unit": "%"}
    ]}
  ]
}
